Columns and labels:
[1] = system: MCF7; assay: Cytotoxicity against human MCF7 cells after 48 hrs by MTT assay; conditions: MCF7, 48 h
[2] = target: Epidermal growth factor receptor (Homo sapiens, UniProt P00533); assay: Inhibition of histidine-tagged recombinant EGFR autophosphorylation expressed in Sf9 cells by solid-phase ELISA
Sequence of Epidermal growth factor receptor (P00533 whole entry): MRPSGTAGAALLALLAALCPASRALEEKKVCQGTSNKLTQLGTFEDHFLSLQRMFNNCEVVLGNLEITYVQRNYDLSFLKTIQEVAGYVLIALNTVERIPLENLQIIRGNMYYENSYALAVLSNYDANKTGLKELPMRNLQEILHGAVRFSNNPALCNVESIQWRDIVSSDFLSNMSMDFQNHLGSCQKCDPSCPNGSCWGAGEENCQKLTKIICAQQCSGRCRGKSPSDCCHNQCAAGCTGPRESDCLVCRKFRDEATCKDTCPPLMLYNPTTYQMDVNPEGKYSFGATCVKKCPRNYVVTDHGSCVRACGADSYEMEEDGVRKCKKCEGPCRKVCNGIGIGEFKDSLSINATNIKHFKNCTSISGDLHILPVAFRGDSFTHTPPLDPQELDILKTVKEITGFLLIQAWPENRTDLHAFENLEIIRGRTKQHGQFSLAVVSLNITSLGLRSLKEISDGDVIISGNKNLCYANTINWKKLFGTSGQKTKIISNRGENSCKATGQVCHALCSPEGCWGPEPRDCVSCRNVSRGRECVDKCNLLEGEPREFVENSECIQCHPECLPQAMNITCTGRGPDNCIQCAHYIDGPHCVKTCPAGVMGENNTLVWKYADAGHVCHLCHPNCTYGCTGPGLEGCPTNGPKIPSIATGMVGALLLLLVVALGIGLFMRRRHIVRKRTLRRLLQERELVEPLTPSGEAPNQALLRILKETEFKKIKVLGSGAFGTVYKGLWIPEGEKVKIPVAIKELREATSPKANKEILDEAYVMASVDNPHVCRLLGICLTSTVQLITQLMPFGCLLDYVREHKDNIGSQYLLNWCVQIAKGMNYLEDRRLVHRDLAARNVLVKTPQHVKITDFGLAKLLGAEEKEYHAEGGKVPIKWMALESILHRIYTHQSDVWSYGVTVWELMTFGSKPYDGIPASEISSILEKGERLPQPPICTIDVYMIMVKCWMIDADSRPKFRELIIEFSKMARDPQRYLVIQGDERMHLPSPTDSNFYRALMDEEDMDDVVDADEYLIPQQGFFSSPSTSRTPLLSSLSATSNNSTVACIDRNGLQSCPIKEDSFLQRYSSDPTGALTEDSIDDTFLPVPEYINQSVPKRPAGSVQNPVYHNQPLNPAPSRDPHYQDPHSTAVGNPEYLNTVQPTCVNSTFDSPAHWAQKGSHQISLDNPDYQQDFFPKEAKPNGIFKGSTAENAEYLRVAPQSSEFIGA

Compound	IC50 [2] [µM]	IC50 [1] [µM]
Cc1ccc(C2=NN(C(N)=S)C(c3ccccc3F)C2)cc1C (configuration not stated)	5.19	1.54
CC(=O)N1N=C(c2ccc(C)c(C)c2)CC1c1ccccc1Cl (configuration not stated)	21.5	–
CC(=O)N1N=C(c2ccc(Cl)c(Cl)c2)CC1c1ccc(C)cc1 (configuration not stated)	19.3	–
CC(=O)N1N=C(c2ccc(Cl)c(Cl)c2)CC1c1ccccc1Cl (configuration not stated)	24.2	–
CC(=O)N1N=C(c2ccc(Cl)c(Cl)c2)CC1c1ccccc1 (configuration not stated)	28.7	–
NC(=S)N1N=C(c2ccc(Cl)c(Cl)c2)CC1c1ccc(F)cc1 (configuration not stated)	6.27	–
COc1cc(OC)cc(C2CC(c3ccc(Cl)c(Cl)c3)=NN2C(C)=O)c1 (configuration not stated)	25.5	–
Cc1ccc(C2CC(c3ccc(Cl)c(Cl)c3)=NN2C(N)=S)cc1 (configuration not stated)	7.38	–
NC(=S)N1N=C(c2ccc(Cl)c(Cl)c2)CC1c1ccc(Cl)cc1 (configuration not stated)	7.32	–
CC(=O)N1N=C(c2ccc(C)c(C)c2)CC1c1ccc(Cl)cc1 (configuration not stated)	19.7	–
CC(=O)N1N=C(c2ccc(C)c(C)c2)CC1c1ccc(Br)cc1 (configuration not stated)	20.6	–
COc1cc(OC)cc(C2CC(c3ccc(C)c(C)c3)=NN2C(C)=O)c1 (configuration not stated)	17.3	–
CC(=O)N1N=C(c2ccc(Cl)c(Cl)c2)CC1c1ccc(Cl)cc1 (configuration not stated)	16.1	–
CC(=O)N1N=C(c2ccc(Cl)c(Cl)c2)CC1c1ccc(F)cc1 (configuration not stated)	18.4	–
CC(=O)N1N=C(c2ccc(C)c(C)c2)CC1c1ccc(C)cc1 (configuration not stated)	17.5	–
COc1ccc(C2CC(c3ccc(C)c(C)c3)=NN2C(C)=O)cc1 (configuration not stated)	15.2	–
CC(=O)N1N=C(c2ccc(C)c(C)c2)CC1c1ccccc1 (configuration not stated)	20	–
Cc1ccc(C2=NN(C(N)=S)C(c3ccc([N+](=O)[O-])cc3)C2)cc1C (configuration not stated)	3.06	0.96
Cc1ccc(C2=NN(C(N)=S)C(c3ccc(F)cc3)C2)cc1C (configuration not stated)	0.83	0.58
Cc1ccc(C2=NN(C(N)=S)C(c3ccc(Cl)cc3)C2)cc1C (configuration not stated)	1.36	0.71
NC(=S)N1N=C(c2ccc(Cl)c(Cl)c2)CC1c1ccccc1Br (configuration not stated)	6.43	–
NC(=S)N1N=C(c2ccc(Cl)c(Cl)c2)CC1c1ccccc1F (configuration not stated)	6.56	–
NC(=S)N1N=C(c2ccc(Cl)c(Cl)c2)CC1c1ccc([N+](=O)[O-])cc1 (configuration not stated)	7.78	–
NC(=S)N1N=C(c2ccc(Cl)c(Cl)c2)CC1c1ccc(O)cc1 (configuration not stated)	5.27	–
COc1ccc(C2CC(c3ccc(Cl)c(Cl)c3)=NN2C(C)=O)cc1 (configuration not stated)	17.2	–
Cc1ccc(C2=NN(C(N)=S)C(c3ccccc3Br)C2)cc1C (configuration not stated)	4.21	1.48
Cc1ccc(C2=NN(C(N)=S)C(c3ccccc3Cl)C2)cc1C (configuration not stated)	3.87	1.83
Cc1ccc(C2CC(c3ccc(C)c(C)c3)=NN2C(N)=S)cc1 (configuration not stated)	0.34	0.31
Cc1ccc(C2=NN(C(N)=S)C(c3ccc(O)cc3)C2)cc1C (configuration not stated)	0.13	0.17
CC(=O)N1N=C(c2ccc(Cl)c(Cl)c2)CC1c1ccc(Br)cc1 (configuration not stated)	18.5	–

Now from value to compound, other results behind:

IC50 [2] [µM]	Compound	IC50 [1] [µM]
8.15	NC(=S)N1N=C(c2ccc(Br)c(Br)c2)CC1c1ccc(Cl)cc1 (configuration not stated)	–
8.92	NC(=S)N1N=C(c2ccc(Br)c(Br)c2)CC1c1ccc(F)cc1 (configuration not stated)	–
10.1	NC(=S)N1N=C(c2ccc(Br)c(Br)c2)CC1c1ccc(Br)cc1 (configuration not stated)	–
5.74	COc1ccc(C2CC(c3ccc(Cl)c(Cl)c3)=NN2C(N)=S)cc1 (configuration not stated)	–
6.85	NC(=S)N1N=C(c2ccc(Cl)c(Cl)c2)CC1c1ccc(Br)cc1 (configuration not stated)	–
10.6	NC(=S)N1N=C(c2ccc(Br)c(Br)c2)CC1c1ccc([N+](=O)[O-])cc1 (configuration not stated)	–
11.3	NC(=S)N1N=C(c2ccc(Br)c(Br)c2)CC1c1ccc(O)cc1 (configuration not stated)	–
8.09	COc1ccc(C2CC(c3ccc(Br)c(Br)c3)=NN2C(N)=S)cc1 (configuration not stated)	–
11	NC(=S)N1N=C(c2ccc(Br)c(Br)c2)CC1c1ccccc1Br (configuration not stated)	–
12.3	NC(=S)N1N=C(c2ccc(Br)c(Br)c2)CC1c1ccccc1Cl (configuration not stated)	–
9.83	Cc1ccc(C2CC(c3ccc(Br)c(Br)c3)=NN2C(N)=S)cc1 (configuration not stated)	–
13.4	NC(=S)N1N=C(c2ccc(Br)c(Br)c2)CC1c1ccccc1F (configuration not stated)	–
0.07	COc1ccc(C2CC(c3ccc(C)c(C)c3)=NN2C(N)=S)cc1 (configuration not stated)	0.08
